Experimental data reported in article PMC7795729 (International Journal of Molecular Sciences, 2020).

Tests used:
[1] = target: T1, acetylcholinesterase (AChE from the electric eel) (Electrophorus electricus, UniProt O42275); experiment: AChE in vitro inhibition assay (Ellman's method); format: biochemical
T1 construct: purchased Sigma-Aldrich
Protocol: Apart from its main function, this enzyme can efficiently hydrolyze a sulfur analogue of acetylcholine–acetylthiocholine. The products of this reaction are acetate and thiocholine, with the latter reacting with the highly reactive DNTB ion, generating a 5-thio-2-nitrobenzoate anion that has a yellow color and it can be detected by measuring the increase of absorbance at 412 nm. 3 mL of assay medium (phosphate buffer pH 7.4 + 150 µL DNTB 0.01 M + 30 µL AChE 2.0 units/mL) was put into cuvettes. The positive control was incubated at 37 °C for 15 min and then was added 150 µL of substrate (acetylthiocholine 0.01 M). […] After the addition of substrate to the assay medium, it was measured the increase in absorbance at 412 nm for 30 s intervals for 5 min (300 s) at 37 °C.
The absorbance was measured in the JENWAY 6300 Spectrophotometer. All conditions were made in triplicates. The value of the initial absorbance was subtracted to the value of the absorbance at 300 s and that was considered as the biological activity.

[2] = test system: MCF-7 (breast cancer) cells; settings: for IC50: read-out: IC50, MCF-7 cell viability, MTT, dose-response 1, 2.5, 5, 10, 20 and 25 µM, 24 h, triplicates, n = 3
Protocol: (§1) MCF-7 cells and SH-SY5Y cells were maintained in a culture flask (25 cm^2) with full growth medium DMEM supplemented with 10% FBS and penicillin and streptomycin (final concentration of 100 U/mL and 0.1 mg/mL, respectively) were kept in an incubator at 37 °C and 5% CO2. In the culture flask, the medium was changed at least twice a week, while trypsinization was done at least once a week. Trypsinization was made when there was more than 80% confluence of the monolayer and cell passages used were lower than 35.
(§2) For cytotoxicity evaluation, MCF-7 cells were seeded in 48-well plates at a density of 25 × 10^4 cells per well in a final volume of 250 µL of culture medium. Cells were given 24 h to attach before they were incubated with the compounds in the study. […] H2O and DMSO were used in control, with the volume added being the one used for each concentration.
The MTT assay can be used to assess the cell’s metabolic activity. MTT, a water-soluble compound, is reduced by the complex II of the mitochondrial respiratory chain to a water-insoluble blue formazan product. Only viable cells can metabolize MTT, so the metabolic activity is proportional to the quantity of formazans produced). After a 24 h incubation with the compounds in the study at 37 °C with 5% CO2, the cells were retrieved from the incubator and the medium was discarded. A previously warmed medium with MTT (0.5 mg/mL) was added (200 μL per well) and cells were maintained for 3 h at 37 °C and 5% CO2. Then the medium was aspirated again and DMSO (200 μL) was added to cause cellular lysis and solubilize the formazan crystals. The complete dissolution of the crystals was obtained by putting the plates on a shaking platform for 15 min, protected from light. The absorbance was read at 570 nm in a microplate reader (BioTeK Model Synergy HT, Winooski, VT, USA). Results were expressed as percentage of control cells.

[3] = test system: SH-SY5Y (neuroblastoma) cells; experiment: MTT reduction assay, SH-SY5Y cells; format: cell-based, human
Protocol: as §1
Cells were given 24 h to attach before they were incubated with the compounds in the study. The cells were treated with different concentrations (1, 2.5, 5, and 10 µM) of Tacrine, MAP, and Tacrine-MAP for 24 h with a final volume per well of 200 μL of complete medium. H2O and DMSO were used in control, with the volume added being the one used for each concentration. After the period of incubation, the MTT reduction was performed in both cell lines.
The MTT assay can be used to assess the cell’s metabolic activity. […] Only viable cells can metabolize MTT, so the metabolic activity is proportional to the quantity of formazans produced). […] The absorbance was read at 570 nm in a microplate reader (BioTeK Model Synergy HT, Winooski, VT, USA). Results were expressed as percentage of control cells.

MCF-7 cells [4] = experiment: Cell count analysis (Lionheart FX), MCF-7 cells; format: cell-based, human; settings: 24 h incubation, n = 1
Protocol: as §2
(§3) After the treatments, cell morphology and growth were assessed by the contrast phase microscope Lionheart FX (Biotech, VT, USA) with the use of Gen5 software (Biotech, USA). The cell count of MCF-7 cells was assessed by Lionheart FX (Biotech, USA) using Gen5 software (Biotech, USA).

SH-SY5Y cells = experiment: Cell count analysis (Lionheart FX), SH-SY5Y cells; format: cell-based, human; settings: SH-SY5Y, 1, 2.5, 5 and 10 µM, 24 h incubation, n = 1
MCF-7 cells [5] = experiment: Cell morphology visualization (phase contrast, Lionheart FX), MCF-7 cells; format: cell-based, human; settings: 24 h incubation; Tacrine all concentrations tested; MAP 5, 10, 20 and 25 μM; conjugate higher concentrations
Protocol: as §2, §3

MCF-7 cells [6] = experiment: Analysis of drug interactions (Chou-Talalay, CompuSyn); format: cell-based, human; settings: n = 3
Protocol: To quantify the interaction of Tacrine and MAP in the conjugate, the dose-effect curves were estimated by the unified theory, introduced by Chou and Talalay using CompuSyn software (ComboSyn, Inc., New York, NY, USA). The dose was plotted on the y-axis as a function of effect level (Fa) on the x-axis to assess the drugs’ behavior. Experiments were conducted in triplicate (n = 3) with three replications.

[7] = cellular uptake kinetics; cited from earlier work
Excerpt: In view of the above, we decided to explore how the coupling of Tacrine with the cell-penetrating peptide (CPP) MAP might enhance its anti-cancer effect. CPPs are considered versatile carriers due to their unique ability to transport a wide range of molecules such as proteins, nucleic acids, contrast agents, drugs, and promote their intracellular delivery with limited toxicity. […] MAP (named after “model amphipathic peptide”) is an artificial ...

[8] = test system: breast tumor cells (MCF-7); settings: cited from earlier work
Excerpt: Drug combination is a strategy increasingly used in oncology because it allows taking advantage of the maximum therapeutic effect of two or more drugs, by combining different mechanisms of action, while reducing required doses and, consequently, side effects. Drug repurposing is another strategy that allows overcoming the disadvantages of the traditional development of novel anticancer drugs, by searching for new therapeutic uses for drugs already approved for other indications. This allows the reduction of costs related to the development of new drugs while promoting a faster route towards th ...

[9] = summary statement of the abstract

T1 sequence (O42275 24-633): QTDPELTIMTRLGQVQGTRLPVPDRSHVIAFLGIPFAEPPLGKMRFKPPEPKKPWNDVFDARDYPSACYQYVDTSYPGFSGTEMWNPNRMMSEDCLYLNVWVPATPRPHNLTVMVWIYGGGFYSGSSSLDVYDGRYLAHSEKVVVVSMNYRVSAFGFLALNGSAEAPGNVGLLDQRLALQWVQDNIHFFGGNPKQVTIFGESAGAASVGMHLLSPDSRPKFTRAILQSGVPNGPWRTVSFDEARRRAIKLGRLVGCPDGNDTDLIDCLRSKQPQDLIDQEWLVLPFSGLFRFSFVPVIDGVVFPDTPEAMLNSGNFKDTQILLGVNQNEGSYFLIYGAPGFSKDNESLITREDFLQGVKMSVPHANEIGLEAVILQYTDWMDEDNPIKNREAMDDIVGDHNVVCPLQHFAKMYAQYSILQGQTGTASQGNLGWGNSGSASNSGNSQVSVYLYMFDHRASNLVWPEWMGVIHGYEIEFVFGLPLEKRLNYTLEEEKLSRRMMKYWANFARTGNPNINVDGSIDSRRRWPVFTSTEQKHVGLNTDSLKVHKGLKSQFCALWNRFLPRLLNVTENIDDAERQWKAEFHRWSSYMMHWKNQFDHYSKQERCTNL

**Q.** What does the source list for `CC(C)C[C@H](NC(=O)[C@H](C)NC(=O)[C@H](CCCCN)NC(=O)[C@H](CC(C)C)NC(=O)[C@H](C)NC(=O)[C@H](CC(C)C)NC(=O)[C@H](CCCCN)NC(=O)[C@H](CC(C)C)NC(=O)[C@H](C)NC(=O)[C@H](CC(C)C)NC(=O)[C@H](CCCCN)NC(=O)[C@@H](N)Cc1cn(CC(=O)Nc2c3c(nc4ccccc24)CCCC3)nn1)C(=O)N[C@@H](CCCCN)C(=O)N[C@@H](C)C(=O)N[C@@H](C)C(=O)N[C@@H](CC(C)C)C(=O)N[C@@H](CCCCN)C(=O)N[C@@H](CC(C)C)C(=O)N[C@@H](C)C(N)=O` [MAP-Tacrine conjugate]?
**A.** IC50 [1]: 6.07 µM; IC50 [2]: 2.73 µM; Toxicity to MCF-7 cells (in words) [2, 9]: highly toxic; Toxicity to SH-SY5Y cells (in words) [3, 9]: highly toxic; Cell count (in words) (MCF-7 cells [4]; MCF-7, 1, 2.5, 5 and 10 µM): significantly decreased cell count; Cell count (in words) (MCF-7 cells [4]; MCF-7, 20 and 25 µM): severe drop in cell count; Cell count (in words) (SH-SY5Y cells): significantly decreased cell count; Morphological changes of MCF-7 cells vs control (in words) (MCF-7 cells [5]): cell damage observed was similar to that caused by MAP alone; Drug interaction of MAP and Tacrine in decreasing cell viability (MCF-7 cells [6]; higher doses): additive effect; Drug interaction of MAP and Tacrine in decreasing cell viability (MCF-7 cells [6]; lower doses of drug and peptide): synergistic effect

**Q.** With `CC(C)C[C@H](NC(=O)[C@H](C)NC(=O)[C@H](CCCCN)NC(=O)[C@H](CC(C)C)NC(=O)[C@H](C)NC(=O)[C@H](CC(C)C)NC(=O)[C@H](CCCCN)NC(=O)[C@H](CC(C)C)NC(=O)[C@H](C)NC(=O)[C@H](CC(C)C)NC(=O)[C@@H](N)CCCCN)C(=O)N[C@@H](CCCCN)C(=O)N[C@@H](C)C(=O)N[C@@H](C)C(=O)N[C@@H](CC(C)C)C(=O)N[C@@H](CCCCN)C(=O)N[C@@H](CC(C)C)C(=O)N[C@@H](C)C(N)=O` [MAP] as the compound, how does the IC50 [2] read?
**A.** Its IC50 is 2.72 µM.

**Q.** What about the “Cellular uptake among several CPP (in words)” value [7] of the same compound?
**A.** Its value is “fastest cellular uptake”.

**Q.** With `Nc1c2c(nc3ccccc13)CCCC2` [Tacrine] as the compound, how does the “MTT reduction compared to control (in words)” value ([2]; MCF-7, 1, 2.5, 5 and 10 µM, 24 h incubation) read?
**A.** The value was “no significant differences”.

**Q.** What about the “MTT reduction compared to control (in words)” value ([3]; SH-SY5Y, 1, 2.5, 5 and 10 µM, 24 h incubation) of the same compound?
**A.** Its value is “no significant differences”.

**Q.** And the “Cell count (in words)” value (MCF-7 cells [4]; MCF-7, 1, 2.5, 5 and 10 µM)?
**A.** Its value is “did not affect the number of cells in culture”.

**Q.** And the “Cell count (in words)” value (MCF-7 cells [4]; MCF-7, 20 and 25 µM)?
**A.** The value was “no significant effects”.

**Q.** And the “Cell count (in words)” value (SH-SY5Y cells)?
**A.** Its value is “did not affect the number of cells in culture”.

**Q.** What about the “Morphological changes of MCF-7 cells vs control (in words)” value (MCF-7 cells [5]) of the same compound?
**A.** Its value is “No significant differences in cell morphology”.

**Q.** And the “Activity on MCF-7 cells (in words)” value ([8]; 50 µM, alone)?
**A.** Its value is “antiproliferative activity”.

**Q.** What about the “Cytotoxicity against MCF-7 cells in combination with 5-FU (in words)” value ([8]; combination with 5-Fluorouracil) of the same compound?
**A.** The value was “increased the cytotoxicity”.
